Results reported in paper PMC8149334 (Cancer Chemotherapy and Pharmacology, 2021).
Blank lines part the entries; values can stand above or below the molecule they belong to.

How the values were obtained:
[1] = system: P-glycoprotein (P-gp); details: cited from earlier work
[2] = in vivo
Procedure: Additional details of the bioanalytical methods are available in the Supplementary Appendix. Serial blood samples were collected in Parts 1 and 2 on day 1 of cycles 1, 2, and 3, and every 3 cycles thereafter (Supplementary Table 1). […] Concentration–time profiles were plotted for each analyte, and individual and mean plasma concentration–time data and pharmacokinetic parameters were summarized using descriptive statistics.
Pharmacokinetic analyses were performed using the validated Phoenix™ WinNonlin® software (v6.2.1; […]). Noncompartmental analysis (model, Plasma; dose, extravascular) was applied for the pharmacokinetic analysis. The pharmacokinetics outputs were created using SAS v9.3 (SAS Institute Inc., Cary, NC, USA). Summary statistics, including N, mean, SD, % coefficient of variation, geometric mean, median, minimum, and maximum, were calculated for plasma concentration of each analyte at each time point and for the derived pharmacokinetic parameters.

Compound: CO[C@H]1/C=C/O[C@@]2(C)Oc3c(C)c(O)c4c(O)c(c(/C=N/N5CCN(C)CC5)c(O)c4c3C2=O)NC(=O)/C(C)=C\C=C\[C@H](C)[C@H](O)[C@@H](C)[C@@H](O)[C@@H](C)[C@H](OC(C)=O)[C@@H]1C [Rifampin]
- Decrease in exposure of various P-gp substrates ([1]; human, not told): ≤ 67%

Compound: CNC(=O)c1ccc(N2C(=S)N(c3cnc(C#N)c(C(F)(F)F)c3)C(=O)C23CCC3)cc1F [Apalutamide, apalutamide]
- Reduction in AUC0–last of fexofenadine ([1]; patients with CRPC): 30%

- Metabolite-to-parent ratios [2]: below 1
Compound: O=C(O)c1cccc2cn(-c3ccc(C4CCCNC4)cc3)nc12 (stereo not drawn) [M1]
